In article PMC11190223, “Identification of sulfakinin receptor regulating feeding behavior and hemolymph trehalose homeostasis in the silkworm, Bombyx mori” (Scientific Reports, 2024):
Where no end group is shown, it is not given here. [ ]: non-standard residue; d: D form. sY = N[C@@H](Cc1ccc(OS(=O)(=O)O)cc1)C(=O)O

Assays:
[1] = tested on: BNGR-A9; assay: Receptor internalization assay, BNGR-A9-EGFP; format: cell-based, Bombyx mori; conditions: BNGR-A9-EGFP stably expressing HEK293 cells; 100 nM, 30 min; fluorescence microscopy
Source text: The entire coding region of BNGR-A9 (NM_001134272.1) was obtained by PCR and subsequently cloned into pEGFP-N1 and pCMV-Flag vectors using the primers listed in Table S1. The Flag-BNGR-A9 construct was generated for functional assays, including CRE-luciferase, calcium mobilization, and ERK phosphorylation assays, while BNGR-A9-EGFP was created for receptor visualization purposes. Additionally, for expression in the BmN cell system, the BNGR-A9 gene was inserted into the pIZT/V5-His vector. All constructs were validated by DNA sequencing.
BNGR-A9-EGFP stably expressing HEK293 cells were seeded onto coverslips and incubated overnight under normal growth conditions. Subsequently, the cells were starved with fresh serum-free DMEM for 1 h and treated with either 100 nM BmsSK or BmnsSK. After a 30-min incubation period, the cells were washed three times with ice-cold PBS and fixed with 3% paraformaldehyde for 10 min at room temperature. The images were taken by a fluorescence microscopy (Leica, Germany).

[2] = tested on: BNGR-A9; assay: cAMP ELISA in BNGR-A9-expressing HEK293 cells; format: cell-based, Bombyx mori; conditions: 1 μM, 15 min, IBMX pretreatment (300 μM, 1 h)
Description: 1. Measurement of cAMP accumulation
Cells were seeded in 24-well plates and incubated overnight. Prior to treatment, cells
were pre-treated with the phosphodiesterase inhibitor IBMX (300 μM) for 1 hour.
Subsequently, cells were treated with different Bombyx neuropeptides for 15 minutes.
The reaction was terminated by removing the medium, followed by the addition of
ice-cold PBS and a single wash. Cell lysis was performed, and cAMP formation was
assessed using a competitive binding technique based on an enzyme-linked
immunosorbent assay (ELISA) (Parameter cAMP assay, R&D, Minneapolis, USA)
following the manufacturer's instructions. The results were expressed as the fold
change in cAMP concentration compared to the control concentration in the
2. Determination of Glucose of hemolymph
Silkworm larvae were anesthetized by cooling on ice, after which hemolymph was
collected using a micropipette from an incision made at the abdominal leg.
Approximately 5 mg of phenylthiourea (to achieve a final concentration of 2.5% w/v)
was added to the hemolymph in a 1.5 ml Eppendorf tube to inhibit clotting.
Hemolymph samples from 10 insects were then centrifuged at 12,000 rpm for 10
minutes at 4 °C to sediment any particulates. The glucose concentration in the
hemolymph was determined using a glucose oxidase-peroxidase kit (Shanghai […]
by stimulation with 1μM BmnsSK or BmsSK for 15 min, and the cAMP level was determined […]

[3] = tested on: BNGR-A9; assay: ERK1/2 phosphorylation (western blot), BNGR-A9-expressing HEK293 cells; format: cell-based, Bombyx mori
[4] = tested on: ERK phosphorylation in silkworm brains; assay: ERK phosphorylation (western blot), silkworm larval brains ex vivo; parameters: species or system Bombyx mori
Description: HEK293 cells with Flag-BNGR-A9 were exposed to 100 nM BmsSK for different durations and then lysed using RIPA buffer (Beyotime, China). For ex vivo assays, brains from 5th instar silkworm larvae were treated with BmsSK (100 nM) for 1, 2, or 8 h, either with a pre-treatment of Gαq inhibitor FR900359 for 30 min or without it. After treatment, samples were lysed, homogenized, and their protein concentrations were determined with a BCA protein kit (Takara, Japan). For western blot analysis, equal amounts of protein lysate were used. Protein expression was analyzed using specific primary antibodies: rabbit monoclonal antibodies for total and phosphorylated ERK from Cell Signaling Technology (MA, USA).

[5] = Feeding behavior assay: larval body weight; format: in vivo, Bombyx mori; conditions: injected daily, final concentration 10 nM, 5th instar larvae, days 2 and 4 post-injection vs control (HBM)
Description: (§1) Synchronized larvae of the first day of 5th instar were chosen for feeding behavior assay. Silkworms were starved for 12 h to standardize the starting level. To knock down bngr-a9, 5 μg dsRNA/BNGR-A9 or dsRNA/EGFP was injected into the abdomen of the larvae at the indicated time using a 10 μl microsyringe. For silkworms, both treated and untreated with dsRNA, synthetic SK peptide (at a final concentration of 10 nM) was injected daily starting from the second day of the fifth instar. For each trial, twenty synchronized P50 larvae were used. After injection, the silkworm larvae were fed with enough mulberry leaves three times a day and maintained under standard conditions. Larval body weights and food consumption were measured every other day until pupation.

[6] = Feeding behavior assay: food consumption; format: in vivo, Bombyx mori; conditions: injected daily, final concentration 10 nM, 5th instar larvae; days 2 and 4 post-injection vs control (HBM)
Description: Double-stranded RNAs were synthesized using MEGAscript RNAi T7 Kit (Ambion, CA, USA) following the manufacturer’s instructions. Templates for in vitro transcription were generated by PCR using the primers containing the T7 polymerase promoter sequence at their 5′ ends, as listed in Table S1. For each 20-μl reaction, 1 μg PCR product was added as the template. Following transcription, the reaction mixture was purified by phenol/chloroform extraction and ethanol precipitation. The resulting dsRNA products were diluted with nuclease-free water to achieve the desired concentration (final volume of 2–5 μl).
as §1

In the case of “BmsSK: Bombyx mori sulfated-sulfakinin, synthetic; sulfated version of GDDTFDD^8YGHLRF-NH2 (GDDTFDD[sY]GHLRF-NH2; N-terminus assumed; SMILES CC(C)C[C@H](NC(=O)[C@H](Cc1c[nH]cn1)NC(=O)CNC(=O)[C@H](Cc1ccc(OS(=O)(=O)O)cc1)NC(=O)[C@H](CC(=O)O)NC(=O)[C@H](CC(=O)O)NC(=O)[C@H](Cc1ccccc1)NC(=O)[C@@H](NC(=O)[C@H](CC(=O)O)NC(=O)[C@H](CC(=O)O)NC(=O)CN)[C@@H](C)O)C(=O)N[C@@H](CCCNC(=N)N)C(=O)N[C@@H](Cc1ccccc1)C(N)=O)”, the Receptor internalization [1] was “rapid and significant receptor redistribution within the cytoplasm”, the “Intracellular cAMP level” value [2] was “remained unchanged” and the ERK1/2 phosphorylation ([3]; HEK293 cells expressing BNGR-A9, serum-starved 1 h) was “quick and dose-dependent increase in ERK1/2 phosphorylation”. For the same substance, the “Time of peak ERK1/2 phosphorylation” value ([3]; HEK293 cells, 10 nM BmsSK time course (Fig. 7A)) was 5 min, the “Time of peak ERK1/2 phosphorylation” value ([4]; 5th instar silkworm brains, 100 nM BmsSK for 1, 2 or 8 h) was 2 h and the ERK1/2 phosphorylation ([4]; silkworm brains, 100 nM BmsSK) was “quick and dose-dependent increase in ERK1/2 phosphorylation”. The Body weight [5] was “weight loss”, the Body weight ([5]; listed as synthetic sulfated- SK) was “notably declined” and the Food consumption [6] was “notably declined”.
